From patent publication US20060014826A1, “Dioxocyclohexane carboxylic acid phenyl amide derivatives for modulating voltage-gated potassium channels and pharmaceutical compositions containing the same” (Wyeth, priority 2004, published 2006)

Assays:
[1] = target: T1, human Kv1.1/Kvβ1 potassium ion channel complex (Homo sapiens, UniProt Q09470+Q14722); test: Inhibiting the inactivation of Kv1.1/Kvβ1 potassium ion channel complex, voltage clamp current recordings in Xenopus oocytes; type: cell-based; conditions: relative to control oocytes without test compound, read-out: Percent Increase in Steady State Current (@ concentration shown in parentheses)
T1 construct: expressed in transfected cells; host or cells: Xenopus oocytes injected with cRNA
T1 sequence (Q09470 whole entry): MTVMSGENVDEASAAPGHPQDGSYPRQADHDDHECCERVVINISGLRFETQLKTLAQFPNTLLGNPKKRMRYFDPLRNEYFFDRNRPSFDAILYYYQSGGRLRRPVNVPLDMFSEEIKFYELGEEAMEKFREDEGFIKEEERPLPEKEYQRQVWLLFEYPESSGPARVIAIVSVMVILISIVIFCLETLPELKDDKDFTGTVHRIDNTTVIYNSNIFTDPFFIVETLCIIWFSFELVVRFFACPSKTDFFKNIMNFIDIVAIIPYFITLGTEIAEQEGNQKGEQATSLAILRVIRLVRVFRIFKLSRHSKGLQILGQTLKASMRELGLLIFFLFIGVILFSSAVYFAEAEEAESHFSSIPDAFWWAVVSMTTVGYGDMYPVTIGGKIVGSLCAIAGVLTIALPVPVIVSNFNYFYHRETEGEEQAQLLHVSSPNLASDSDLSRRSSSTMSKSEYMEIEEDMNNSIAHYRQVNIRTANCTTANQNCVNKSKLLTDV
T1 sequence (Q14722 whole entry): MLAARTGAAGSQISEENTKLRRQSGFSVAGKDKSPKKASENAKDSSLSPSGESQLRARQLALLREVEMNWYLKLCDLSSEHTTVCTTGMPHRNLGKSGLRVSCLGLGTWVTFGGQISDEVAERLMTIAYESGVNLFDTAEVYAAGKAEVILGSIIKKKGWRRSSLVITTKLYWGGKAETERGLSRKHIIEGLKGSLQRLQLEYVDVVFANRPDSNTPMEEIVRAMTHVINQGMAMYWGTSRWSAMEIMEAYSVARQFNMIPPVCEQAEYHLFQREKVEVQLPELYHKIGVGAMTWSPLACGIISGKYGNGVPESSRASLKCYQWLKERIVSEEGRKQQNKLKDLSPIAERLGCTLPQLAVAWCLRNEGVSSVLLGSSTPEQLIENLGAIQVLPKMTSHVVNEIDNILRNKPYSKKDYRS
Procedure: Compounds useful in this invention were examined for their ability to inhibit the inactivation of the human Kv1.1/Kvβ1 potassium ion channel complex in vitro using electrophysiological current recordings on inactivating Kv1.1/Kvβ1channels expressed in Xenopus oocytes. The following procedure was used.
Xenopus oocytes were harvested from frogs under general anesthesia using aseptic techniques. Oocytes were treated with 2 mg/ml collagenase for 1-1.5 hr, defolliculated, and injected with 40 nL cRNA (a mixture of hKv1.1 and hKvβ1) produced using standard molecular biological techniques (Sambrook, et al., 1989, Molecular Cloning: A Laboratory Manual). The concentration of hKv1.1/hKvβ1 cRNA varies, but was generally about 50 ng/μL hKv1.1 and […] hkβ1.
Currents were recorded using standard voltage clamp amplifiers at room temperature. Recordings were performed in the bath solution “ND-96” containing 96 mM NaCl, 2 mM KCl, 1 mm CaCl2, 1 mM MgCl2, 10 mM HEPES and […] Gentamycin (pH=7.6). The pipette (electrode) solution generally consisted of 3 mM KCl. Electrodes were made from WPI TW150F-4 borosilicate glass (or equivalent) and typically had resistances of 0.5-1.5 Mohms. The standard current—voltage (IV) pulse protocol consisted of voltage steps from −60 mV to +50 mV, in 10 mV increments for 200 ms, at a frequency of one IV set per 2 minutes. Data were digitized and analyzed by standard software packages.
Test compounds where first dissolved in DMSO to an initial concentration of 1-100 mM. Working dilutions of 1:2000 to 1:500 were made in the bath solution for final concentrations in the micromolar range. The bath solutions containing the test compounds were applied by bath perfusion using gravity or pump-driven flow. A minimum of 2 mL (10 times the bath volume) over 3 minutes were flowed for each compound concentration tested. Data were averaged across at least 3 cells tested for each concentration.
Test compounds were examined for their ability to inhibit the inactivation of the steady state portion of the IV curve.

[2] = tested on: seizures induced by administration of pentylenetetrazole (PTZ); test: Inhibiting PTZ induced seizures; type: in vivo; conditions: Mus musculus; adult mice, i.p. pretreatment 30 min before PTZ 85 mg/kg s.c., 30 minute test period; read-out: ED50, Dose Range
Procedure: Compounds useful in this invention were also examined for their anticonvulsant activity in vivo by assessing their ability to inhibit the seizures induced by administration of pentylenetetrazole (PTZ). Adult mice were pretreated intraperitoneally with the test compound. Thirty minutes later these animals were challenged with pentylenetetrazole (85 mg/kg, s.c.) and observed for onset of seizures during a 30 minute test period.

[3] = tested on: mouse 4-Plate model (punished crossings); test: Anxiolytic activity, mouse 4-Plate model; type: in vivo, male Swiss Webster mice
Procedure: Anxiolytic activity of the compounds of this invention was determined using the mouse 4-Plate model, originally described by Boissier et al. (Eur. J. Pharmacol. (1968) 4:145-151). The test procedure used is described in further detail below. Anxiolytic efficacy is measured as the ability of the test compound to increase the number of times that an animal will accept a mild punishment (in the form of a foot shock) in order to explore its environment. A number of clinically effective treatments for anxiety from multiple pharmacological classes are effective in this model (Hascoet et al., Pharmacol. Biochem. Beh. (2000) 65:339-344).
The compound of Example 8 was examined in the 4-Plate model.
Experimental Protocol for the 4-Plate Model
The “four-plate” apparatus consisted of a Plexiglas cage (18×25×16 cm) floored by four identical rectangular metal plates (8×11 cm) separated from one another by a gap of 4 mm. The plates were connected to a device that generated electric shocks (0.8 mA, 0.5 sec). […] Test animals (male Swiss Webster mice) were group housed with ad-lib access to food and water. Compounds were administered at the appropriate dose ip. 30 min prior to testing. Control animals were given the vehicle without drug. Animals were then placed in the 4-plate apparatus and allowed to habituate for 18 seconds. Following the 18-sec habituation period, an electric shock (0.8 mA, 0.5 sec) was delivered to the mouse when crossing from one plate to another. No shocks were delivered during the 3 seconds following shock administration. The number of punished crossings was recorded during a 1-min testing period. Data were expressed as the percent change in the number of punished crossings relative to control.

`CC1(C)CC(=O)C(C(=O)Nc2cccc(Cl)c2)C(=O)C1` [Example 1, N-(3-chlorophenyl)-4,4-dimethyl-2,6-dioxocyclohexanecarboxamide] showed an activation at 100 µM [1] of 21%, an ED50 [2] of 30 mg/kg and a melting point of 89 to 91 °C.

For `CC1(C)CC(=O)C(C(=O)Nc2cccc(C(F)(F)F)c2)C(=O)C1` [Example 8, N-(3-trifluoromethylphenyl)-4,4-dimethyl-2,6-dioxocyclohexanecarboxamide], the activation at 100 µM [1] was 40%, the ED50 [2] was 32 mg/kg and the “increase in the number of punished crossings” value ([3]; 56 mg/kg ip) was 31%. The “% Time Spent in Open Zones (Relative to Control)” value ([3]; 60 mg/kg ip., 30 min prior to testing) was 131% and the melting point was 116 to 117 °C.

Work on `CC1(C)CC(=O)C(C(=O)Nc2ccc(Cl)c(Cl)c2)C(=O)C1` [Example 2, N-(3,4-dichlorophenyl)-4,4-dimethyl-2,6-dioxocyclohexanecarboxamide] yielded an activation at 100 µM [1] of 75%, an ED50 [2] of 50 mg/kg and a melting point of 124 to 129 °C.

With `CC1(C)CC(=O)C(C(=O)Nc2cc(C(F)(F)F)cc(C(F)(F)F)c2)C(=O)C1` [Example 9, N-[3,5-bis(trifluoromethyl)phenyl]-4,4-dimethyl-2,6-dioxocyclohexanecarboxamide] the activation at 50 µM ([1]; 50 μm) was 20% and the ED50 [2] was 55 mg/kg.

For `Cc1nnc2n1-c1ccc(Cl)cc1C(c1ccccc1)=NC2` [Alprazolam, reference compound], the “Punished crossings (% of control)” value ([3]; 0.3 mg/kg ip., 30 min prior to testing) was 170% and the “increase in the number of punished crossings” value ([3]; at therapeutically relevant doses) was 70%.
